We go through 23 compounds from patent publication US8609849B1, “Hydroxylated sulfamides exhibiting neuroprotective action and their method of use” (Fox Chase Chemical Diversity Center, Inc., priority 2010, dated 2013).

Broadly, the EC50 is the concentration needed to bring the measured effect to its halfway point.

Assay [1] concerns Hippocampal Cultures. Description: Neuroprotection from hydrogen peroxide (oxidative stress), CFDA assay. The format is cell-based. The note with it: Rattus norvegicus, read-out: NP from HP CFDA EC50. An excerpt:
(§1) Cell cultures: All compounds are screened with dissociated hippocampal cultures derived from embryonic day 18 rats as the primary test system. With this preparation, primary neurons are used to test for toxicity as well as neuroprotection in a highly relevant experimental system to epilepsy. In brief, hippocampal tissue are obtained commercially through Brain Bits (Springfield, Ill.) and cultures prepared as previously described by Brewer (Brewer, G. J. Serum-free B27/neurobasal medium supports differentiated growth of neurons from the striatum, substantia nigra, septum, cerebral cortex, cerebellum and dentate gyms, J. Neurosci. Res. 1995, 42, 674-683.). The hippocampal neurons are platted at low density (10,000 cell/well) in a 96-well format and maintained in serum-free medium consisting of Neurobasal Medium supplemented with B27 and GlutaMAX (Gibco). Pre-coated poly-L-lysine coated plates are used because of the preferential adherence and survival of hippocampal neurons on this matrix support.
(§2) Potent neuroprotection is the distinguishing characteristic that separates this program's anticonvulsants from all other commercial drugs for epilepsy. The experimental details and the rationale for the implemented assays are essential in differentiating these compounds from that of others. The central objective of all neuroprotective assays was their relevancy to excitotoxicity and oxidative stress related to epilepsy. Both the amount of glutamate and hydrogen peroxide used in the assays, as well as the time of treatment and duration of the experiment, were designed to be relevant to epilepsy. Further, all time parameters employed in these studies were empirically determined to be within the limits of reversible toxic events, yet using amounts of glutamate and hydrogen peroxide that were relevant to the disease. In regard to glutamate toxicity, a critical feature was the duration of treatment of the hippocampal neurons. The rational for using a short 5 min treatment with glutamate was based on the observation of Randall and Thayer (Randall, R. D.; Thayer, S. A. Glutamate-induced calcium transient triggers calcium overload and neurotoxicity in rat hippocampal neurons, J. Neurosci. 1992, 12, 1882-1895). […] The rationale is that this intense burst of glutamate and resulting calcium overload is relevant to seizures and therefore was important data to capture in the screening assay. The amount of glutamate (30 μM) employed in our screening was based on the basal levels of glutamate observed in microdialysis measurements of hippocampus from epileptogenic patients (Cavus et al. Decreased hippocampal volume on MRI is associated with increased extracellular glutamate in epilepsy patients, Epilepsia, 2008, 49, 1358-1366.). In regard to hydrogen peroxide, the amount employed (10 μM) was detected in the hippocampus of rats after kainate-induced status epilepticus (Jarrett et. al., Mitochondrial DNA damage and impaired base excision repair during epileptogenesis, Neurobiol. Dis. 2008, 30, 130-138). To produce neural damage and death with these amounts of glutamate and hydrogen peroxide, the cultures were changed to a medium with significant depletion of antioxidant components in the defined medium supplement B-27 just prior to treatment with the compounds. This was performed to obtain a significant and reproducible toxic signal in the hippocampal neurons and because loss of antioxidant control may be a component of epileptogenesis (Waldbaum and Patel, Mitochondria, oxidative stress and temporal lobe epilepsy, Epilepsy Res. 2010 88, 23-45.; Wu et al., Mitochondrial DNA mutation-elicited oxidative stress, oxidative damage, and altered gene expression in cultured cells of patients with MERRF syndrome, Mol. Neurobiol. 2010, 41, 256-266.). Neuroprotection studies with hydrogen peroxide were conducted with cultures that were between day 12 and day 18. Studies of neuroprotection glutamate were conducted between day 19 and day 22. […]

For assay [2], the system named is Hippocampal Cultures. Description: Neuroprotection from hydrogen peroxide (oxidative stress), propidium iodide assay. The format is cell-based. The following applies: Rattus norvegicus, read-out: NP from HP PI EC50.
Text: as §1, §2

The test system of the next assay is mice. The assay is described as follows: Maximal Electroshock Test (anti-seizure test). Type of assay: in vivo. An excerpt:
Seizure-related assays, Maximal electroshock test: The most definitive assay for antiseizure activity is the maximal electroshock (MES) test (Swinyard, E. A. Laboratory evaluation of antiepileptic drugs: review of laboratory methods, Epilepsia, 1969, 10, 107-119.). […] With both rodent assays, the duration of action is of high importance as well as the potency of the response.

Assay [3] deals with Hippocampal Cultures. The assay is described as follows: Neuroprotection from glutamate (excitotoxicity), CFDA assay. The format is cell-based. The note with it: Rattus norvegicus, read-out: NP from Glutamate CFDA EC50.
Text: as §1, §2

Assay [4] deals with Hippocampal Cultures. Description: Neuroprotection from glutamate (excitotoxicity), propidium iodide assay. Type of assay: cell-based. The note with it: Rattus norvegicus, read-out: NP from Glutamate PI EC50.
Text: as §1, §2

The mark [5] stands for this setting: 10 μM hydrogen peroxide, hippocampal cultures, CFDA (neuronal viability).
[6] abbreviates: 10 μM hydrogen peroxide, hippocampal cultures, propidium iodide (cell death).
Where [7] appears, read: 30 μM glutamate, hippocampal cultures, CFDA (neuronal viability).
Where [8] appears, read: 30 μM glutamate, hippocampal cultures, propidium iodide (cell death).

`NS(=O)(=O)NCCC(O)c1ccccc1Cl` (stereo not shown) [Example 1, 3-(2-Chloro-phenyl)-3-hydroxypropyl-1-sulfamide]: the EC50 with Hippocampal Cultures [1] (setting [5]) stood at 30000 nM; in the assay on Hippocampal Cultures [2] (setting [6]), 1000 nM; in the assay on Hippocampal Cultures [3] (setting [7]) it was 100 nM; in the assay on Hippocampal Cultures [4] (setting [8]), 100 nM. The “MES Duration” value in the assay with mice (no dose given) was 2 h.
On to `NS(=O)(=O)NCCC(O)c1csc2ccccc12` (stereo not shown) [Example 2, 3-Benzo[b]thiophen-3-yl-3-hydroxypropyl-1-sulfamide], for which the EC50 stood at 3000 nM in the assay with Hippocampal Cultures [1], 30000 nM in the assay on Hippocampal Cultures [2], 100000 nM in the assay with Hippocampal Cultures [3] and 3000 nM with Hippocampal Cultures [4].
Regarding `CC(O)(CCNS(N)(=O)=O)c1ccccc1Cl` (stereo not shown) [Example 3, 3-(2-Chloro-phenyl)-3-hydroxybutanyl-1-sulfamide], the EC50 was 300000 nM with Hippocampal Cultures [1], > 300000 nM in the assay with Hippocampal Cultures [2], > 300000 nM in the assay on Hippocampal Cultures [3] and > 300000 nM in the assay with Hippocampal Cultures [4].
In the case of `CC(C)(CNS(N)(=O)=O)C(O)c1ccccc1F` (stereo not shown) [Example 5, 3-(2-Fluoro-phenyl)-3-hydroxy-2,2-dimethylpropyl-1-sulfamide], the EC50 in the assay on Hippocampal Cultures [1] was > 300000 nM; with Hippocampal Cultures [2], > 300000 nM; with Hippocampal Cultures [3], 100 nM; with Hippocampal Cultures [4], 100 nM.
For the compound `NS(=O)(=O)NCCC(O)c1ccccc1F` (stereo not shown) [Example 6, 3-(2-Fluoro-phenyl)-3-hydroxypropyl-1-sulfamide], the EC50 was 10 nM in the assay with Hippocampal Cultures [1] (setting [5]), 10 nM with Hippocampal Cultures [2] (setting [6]), 1000 nM in the assay with Hippocampal Cultures [3] (setting [7]) and 100 nM in the assay on Hippocampal Cultures [4] (setting [8]). Besides, in the assay on mice (at 100 mg/kg), the “MES Duration” value is 4 hr at 100 mg/kg.
Regarding `NS(=O)(=O)NCCC(O)c1cc(F)ccc1F` (stereo not shown) [Example 7, 3-(2,5-Difluoro-phenyl)-3-hydroxypropyl-1-sulfamide], the half-maximal effective concentration (EC50) with Hippocampal Cultures [1] worked out at 10 nM; in the assay on Hippocampal Cultures [2] it was 1 nM; in the assay on Hippocampal Cultures [3], 30000 nM; in the assay on Hippocampal Cultures [4], 3000 nM.
Regarding `NS(=O)(=O)NCCC(O)c1ccc(F)cc1Cl` (stereo not shown) [Example 8, N-[3-(2-Chloro-4-fluoro-phenyl)-3-hydroxy-propyl]-sulfamide], the EC50 with Hippocampal Cultures [1] (setting [5]) was > 300000 nM; in the assay on Hippocampal Cultures [2] (setting [6]), > 300000 nM; with Hippocampal Cultures [3] (setting [7]), > 300000 nM; in the assay with Hippocampal Cultures [4] (setting [8]), 10000 nM.
For `NS(=O)(=O)NCCC(O)c1ccccc1` (stereo not shown) [Example 9, N-(3-phenyl-3-hydroxy-propyl)-sulfamide], the EC50 was > 300000 nM in the assay with Hippocampal Cultures [1] (setting [5]), > 300000 nM in the assay on Hippocampal Cultures [2] (setting [6]), 300000 nM in the assay with Hippocampal Cultures [3] (setting [7]) and > 300000 nM in the assay on Hippocampal Cultures [4] (setting [8]).
Consider `CC(O)(CCNS(N)(=O)=O)c1ccccc1F` (stereo not shown) [Example 10, N-[3-(2-Fluoro-phenyl)-3-hydroxy-butyl]-sulfamide], for which the 50% effective concentration (EC50) in the assay on Hippocampal Cultures [1] (setting [5]) came out at 100 nM; in the assay on Hippocampal Cultures [2] (setting [6]) it was 300000 nM; with Hippocampal Cultures [3] (setting [7]), 10000 nM; in the assay with Hippocampal Cultures [4] (setting [8]), 10000 nM.
With `Cc1ccccc1C(O)CCNS(N)(=O)=O` (stereo not shown) [Example 11, 3-(2-Methyl-phenyl)-3-hydroxypropyl-1-sulfamide], the EC50 with Hippocampal Cultures [3] (setting [7]) and in the assay on Hippocampal Cultures [4] (setting [8]) was > 300000 nM each time.
Turning to `CCc1ccccc1C(O)CCNS(N)(=O)=O` (stereo not shown) [Example 12, 3-(2-Ethyl-phenyl)-3-hydroxypropyl-1-sulfamide], the EC50 with Hippocampal Cultures [1] (setting [5]) was > 300000 nM; in the assay with Hippocampal Cultures [2] (setting [6]) it was 10 nM; in the assay with Hippocampal Cultures [3] (setting [7]), 10 nM; in the assay with Hippocampal Cultures [4] (setting [8]) it was 10000 nM.
In the case of `NS(=O)(=O)NCCC(O)c1ccccc1Br` (stereo not shown) [Example 13, 3-(2-bromo-phenyl)-3-hydroxypropyl-1-sulfamide], the EC50 was determined as 300000 nM with Hippocampal Cultures [1] (setting [5]), 10000 nM in the assay with Hippocampal Cultures [2] (setting [6]), 10000 nM in the assay with Hippocampal Cultures [3] (setting [7]) and 100000 nM in the assay on Hippocampal Cultures [4] (setting [8]).
On to `COc1ccccc1C(O)CCNS(N)(=O)=O` (stereo not shown) [Example 14, 3-(2-methoxy-phenyl)-3-hydroxypropyl-1-sulfamide], for which the EC50 in the assay with Hippocampal Cultures [1] was 10000 nM; in the assay with Hippocampal Cultures [2], 10 nM; in the assay with Hippocampal Cultures [3], 10 nM; in the assay with Hippocampal Cultures [4] it was 100 nM.
As to `NS(=O)(=O)NCC[C@H](O)c1ccccc1F` [Example 15, (S)-3-(2-Fluoro-phenyl)-3-hydroxypropyl-1-sulfamide], the EC50 with Hippocampal Cultures [1] was 1 nM; with Hippocampal Cultures [2], 1 nM; with Hippocampal Cultures [3] it was 10 nM; in the assay on Hippocampal Cultures [4], 10 nM. Further, the “MES Duration” value with mice (at 100 mg/kg) is 4 hrs at 100 mg/kg.
Take `NS(=O)(=O)NCC[C@@H](O)c1ccccc1F` [Example 16, (R)-3-(2-Fluoro-phenyl)-3-hydroxypropyl-1-sulfamide]: the EC50 in the assay on Hippocampal Cultures [1] and in the assay on Hippocampal Cultures [2] was > 300000 nM throughout.
For the compound `NS(=O)(=O)NCC[C@@H](O)c1ccccc1Cl` [Example 17, (R)-3-(2-Chloro-phenyl)-3-hydroxypropyl-1-sulfamide], the EC50 in the assay on Hippocampal Cultures [1] (setting [5]) and in the assay with Hippocampal Cultures [2] (setting [6]) was > 300000 nM in each case.
As to `NS(=O)(=O)NCC[C@H](O)c1ccccc1Cl` [Example 18, (S)-3-(2-Chloro-phenyl)-3-hydroxypropyl-1-sulfamide], the EC50 in the assay on Hippocampal Cultures [1] (setting [5]) worked out at 1 nM; with Hippocampal Cultures [2] (setting [6]), 1 nM; in the assay on Hippocampal Cultures [3] (setting [7]), 1000 nM; in the assay with Hippocampal Cultures [4] (setting [8]) it was 100 nM.
`NS(=O)(=O)N1CCC(O)(c2ccccc2F)CC1` [Example 19, 4-(2-Fluorophenyl)-4-hydroxypiperidine-1-sulfonamide]: the EC50 amounted to 1000 nM in the assay on Hippocampal Cultures [1] (setting [5]), 1000 nM in the assay with Hippocampal Cultures [2] (setting [6]), 1000 nM with Hippocampal Cultures [3] (setting [7]) and 1 nM in the assay with Hippocampal Cultures [4] (setting [8]). In addition, the “MES Duration” value with mice (at 100 mg/kg) is reported as 6 hrs at 100 mg/kg.
Regarding `NS(=O)(=O)NCCC(O)c1ccccc1C(F)(F)F` (stereo not shown) [Example 20, 3-(2-Trifluoromethyl-phenyl)-3-hydroxypropyl-1-sulfamide], the EC50 in the assay with Hippocampal Cultures [3] and in the assay with Hippocampal Cultures [4] was > 300000 nM throughout.
For the compound `NS(=O)(=O)NCCC(O)c1ccccc1[N+](=O)[O-]` (stereo not shown) [Example 21, 3-(2-Nitro-phenyl)-3-hydroxypropyl-1-sulfamide], the EC50 with Hippocampal Cultures [3] is > 300000 nM; with Hippocampal Cultures [4], 10000 nM.
Consider `NS(=O)(=O)NCCC(O)c1c(F)cccc1F` (stereo not shown) [Example 22, 3-(2,6-Difluoro-phenyl)-3-hydroxypropyl-1-sulfamide], for which the EC50 with Hippocampal Cultures [1] is 1000 nM; in the assay on Hippocampal Cultures [2] it was 10 nM; in the assay with Hippocampal Cultures [3], 100000 nM; with Hippocampal Cultures [4], 300000 nM.
Regarding `NS(=O)(=O)NCCC(O)c1ccccc1-c1ccccc1` (stereo not shown) [Example 23, 3-(2-Phenyl-phenyl)-3-hydroxypropyl-1-sulfamide], the figures for the EC50 with Hippocampal Cultures [3] (setting [7]) and in the assay with Hippocampal Cultures [4] (setting [8]) were 10000 nM and 300000 nM, respectively.
As for `NS(=O)(=O)NCCC(O)c1ccccc1-c1cncc(Cl)c1` (stereo not shown) [Example 24, 3-[2-(5-Chloro-pyridine-3-yl)-phenyl]-3-hydroxypropyl-1-sulfamide], the figures for the EC50 in the assay on Hippocampal Cultures [3] (setting [7]) and in the assay with Hippocampal Cultures [4] (setting [8]) were 10000 nM and > 300000 nM, respectively.
